# Results reported in US20110263564A1, “PYRIDINE, BICYCLIC PYRIDINE AND RELATED ANALOGS AS SIRTUIN MODULATORS” (Sirtris Pharmaceuticals, Inc., priority 2008, published 2011).
# Target: T1, SIRT1 (Homo sapiens, UniProt Q96EB6)
# T1 sequence (Q96EB6 1-747): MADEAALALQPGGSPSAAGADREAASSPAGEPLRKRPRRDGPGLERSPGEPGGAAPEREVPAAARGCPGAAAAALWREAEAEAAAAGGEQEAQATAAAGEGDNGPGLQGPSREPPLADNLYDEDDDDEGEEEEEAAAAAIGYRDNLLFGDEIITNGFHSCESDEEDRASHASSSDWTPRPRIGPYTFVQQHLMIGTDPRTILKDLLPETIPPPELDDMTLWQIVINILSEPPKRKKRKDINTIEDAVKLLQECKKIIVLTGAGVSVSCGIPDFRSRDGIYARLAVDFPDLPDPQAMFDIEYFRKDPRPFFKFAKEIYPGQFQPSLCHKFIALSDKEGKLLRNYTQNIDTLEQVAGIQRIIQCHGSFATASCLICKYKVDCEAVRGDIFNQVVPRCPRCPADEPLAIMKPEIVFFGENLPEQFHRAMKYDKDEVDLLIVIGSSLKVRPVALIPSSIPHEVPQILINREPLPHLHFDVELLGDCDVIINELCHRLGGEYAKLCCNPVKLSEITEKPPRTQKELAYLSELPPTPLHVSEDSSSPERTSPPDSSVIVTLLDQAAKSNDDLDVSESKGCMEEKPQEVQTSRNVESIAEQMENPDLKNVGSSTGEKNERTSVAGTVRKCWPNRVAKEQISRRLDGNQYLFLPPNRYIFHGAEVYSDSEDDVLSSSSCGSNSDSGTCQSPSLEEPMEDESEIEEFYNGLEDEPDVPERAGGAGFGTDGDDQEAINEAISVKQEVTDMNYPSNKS
# Experiment: Mass spectrometry based assay of SIRT1 activity (deacetylation of a p53-based acetylated peptide)
# Assay type: biochemical
# Details: 10 nM SIRT1, 0.5 μM peptide substrate, 120 μM βNAD+, 25 minutes at 25° C.
# Excerpt: A mass spectrometry based assay was used to identify modulators of SIRT1 activity. The mass spectrometry based assay utilizes a peptide having 20 amino acid residues as follows: Ac-EE-K(biotin)-GQSTSSHSK(Ac)NleSTEG-K(5TMR)-EE-NH2 (SEQ ID NO: 1) wherein K(Ac) is an acetylated lysine residue and Nle is a norleucine. The peptide is labeled with the fluorophore 5TMR (excitation 540 nm/emission 580 nm) at the C-terminus. The sequence of the peptide substrate is based on p53 with several modifications. In addition, the methionine residue naturally present in the sequence was replaced with the norleucine because the methionine may be susceptible to oxidation during synthesis and purification.
# The mass spectrometry assay is conducted as follows: 0.5 μM peptide substrate and 120 μM βNAD^+ is incubated with 10 nM SIRT1 for 25 minutes at 25° C. in a reaction buffer (50 mM Tris-acetate pH 8, 137 mM NaCl, 2.7 mM KCl, 1 mM MgCl2, 5 mM DTT, 0.05% BSA). Test compounds may be added to the reaction as described above. […] After the 25 minute incubation with SIRT1, 10 μL of 10% formic acid is added to stop the reaction. Reactions are sealed and frozen for later mass spec analysis. Determination of the mass of the substrate peptide allows for precise determination of the degree of acetylation (i.e. starting material) as compared to deacetylated peptide (product).
# A control for inhibition of sirtuin activity is conducted by adding 1 μL of 500 mM nicotinamide as a negative control at the start of the reaction (e.g., permits determination of maximum sirtuin inhibition). A control for activation of sirtuin activity is conducted using 10 nM of sirtuin protein, with 1 μL of DMSO in place of compound, to determine the amount of deacetylation of the substrate at a given timepoint within the linear range of the assay. This timepoint is the same as that used for test compounds and, within the linear range, the endpoint represents a change in velocity.
# For the above assay, SIRT1 protein was expressed and purified as follows. […] The protein was expressed by induction with 1 mM IPTG as an N-terminal His-tag fusion protein at 18° C. overnight and harvested at 30,000×g. Cells were lysed with lysozyme in lysis buffer (50 mM Tris-HCl, 2 mM Tris[2-carboxyethyl]phosphine (TCEP), 10 μM ZnCl2, 200 mM NaCl) and further treated with sonication for 10 min for complete lysis. The protein was purified over a Ni-NTA column (Amersham) and fractions containing pure protein were pooled, concentrated and run over a sizing column (Sephadex S200 26/60 global). The peak containing soluble protein was collected and run on an Ion-exchange column (MonoQ). Gradient elution (200 mM-500 mM NaCl) yielded pure protein. This protein was concentrated and dialyzed against dialysis buffer (20 mM Tris-HCl, 2 mM TCEP) overnight. The protein was aliquoted and frozen at −80° C. until further use.
# Sirtuin modulating compounds that activated SIRT1 were identified using the assay described above and are shown below in Table 1 for compounds of Formula (III)). The EC1.5 values represent the concentration of test compounds that result in 150% activation of SIRT1. The EC1.5 values for the activating compounds in Table 1 are represented by A (EC1.5<10.0 μM), B (EC1.5 10-25 μM), C (EC1.5>25 μM). The percent maximum fold activation is represented by A (Fold activation>200%) or B (Fold Activation<200%); “NT” means not tested; “ND” mean not determinable.
row,Compound,EC1.5 (concentration of test compound that results in 150% activation of SIRT1)
1,O=C(Nc1ncc(CN2CCCC2)s1)C1CCCc2ccc(-c3cccc(C(F)(F)F)c3)nc21 (stereo not shown) [Compound 296],C (EC1.5>25 μM)
2,O=C(Nc1cccc(CN2CCOCC2)n1)C1CCCc2ccc(-c3cccc(C(F)(F)F)c3)nc21 (stereo not shown) [Compound 297],C (EC1.5>25 μM)
3,"O=C(Nc1cccc(N2CCOCC2)n1)C1CCOc2ccc(-c3cccc(C(F)(F)F)c3)nc21 (stereo not shown) [Compound 302, N-(6-morpholinopyridin-2-yl)-6-(3-(trifluoromethyl)phenyl)-3,4-dihydro-2H-pyrano[3,2-b]pyridine-4-carboxamide]",C (EC1.5>25 μM)
4,O=C(Nc1ccncn1)C1CCOc2ccc(-c3cccc(C(F)(F)F)c3)nc21 (stereo not shown) [Compound 303],C (EC1.5>25 μM)
